Test results from US20250051263A1, “NOVEL IONIZABLE LIPIDS AND LIPID NANOPARTICLES AND METHODS OF USING THE SAME” (Sail Biomedicines, Inc., priority 2021, published 2025).

Legend:
[1] = LNP size and polydispersity, Zetasizer Ultra; format: physicochemical; details: Example 5 LNP lipid:DOPE:Plant Cholesterol:DMPE-PEG2k 35:16:46.5:2.5, FLUC/EPO 1:1 mRNA, N:P 6:1
How it was run: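 Lipids dissolved in ethanol were combined with mRNA solution at a 1:3 volume ratio on a NanoAssemblr Ignite at 9 mL/min total flow. Particles were dialyzed in Slide-A-Lyzer G2 cassettes (10 k MWCO) against 1×PBS, then overnight at 4° C., concentrated with Amicon Ultra filters (100 k MWCO), and measured for size and polydispersity on a Zetasizer Ultra.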

[2] = mRNA encapsulation efficiency, Quant-iT RiboGreen RNA Assay; format: physicochemical; details: Example 5 LNP lipid:DOPE:Plant Cholesterol:DMPE-PEG2k 35:16:46.5:2.5, FLUC/EPO 1:1 mRNA, N:P 6:1
[3] = test system: Balb/c mice; assay: In-vivo bioluminescent imaging after IV injection of Fluc mRNA LNP; details: Example 5 LNP (DOPE 35:16:46.5:2.5), IV, 5 μg FLUC + 5 μg EPO; for Bioluminescence (IV) Liver / Bioluminescence (IV) Lung / Bioluminescence (IV) Spleen / Bioluminescence (IV) Whole Body: 4-6 hours post-dose; for Spleen: Liver Ratio: ratio of bioluminescence

Compound	PDI [1]	Size (nm) [1]	% EE [2]	Bioluminescence (IV) Liver [3]	Bioluminescence (IV) Lung [3]	Bioluminescence (IV) Spleen [3]	Bioluminescence (IV) Whole Body [3]	Spleen: Liver Ratio [3]
CCCCCCCCC(CCCCCCCC)OC(=O)CCCCCCCN(CCCCCCCC(=O)OC(CCCCCCCC)CCCCCCCC)CCNC(=O)CCCC(=O)NCCN(CCCCCCCC(=O)OC(CCCCCCCC)CCCCCCCC)CCCCCCCC(=O)OC(CCCCCCCC)CCCCCCCC [Compound 2320, 1-octylnonyl 8-[2-[[5-[2-[bis[8-(1-octylnonoxy)-8-oxo-octyl]amino]ethylamino]-5-oxo-pentanoyl]amino]ethyl-[8-(1-octylnonoxy)-8-oxo-octyl]amino]octanoate]	0.15	126.1 nm	93.4%	8.1E+07	4.0E+03	4.4E+05	9.5E+08	0.007
CCCCCC(CCCCC)CCCOC(=O)CCCCCCCN(CCCCCCCC(=O)OCCCC(CCCCC)CCCCC)CCNC(=O)CCC(=O)NCCN(CCCCCCCC(=O)OCCCC(CCCCC)CCCCC)CCCCCCCC(=O)OCCCC(CCCCC)CCCCC [Compound 2332, bis(4-pentyl-nonyl)13,16-dioxo-9,20-bis(8-oxo-8-((4-pentylnon-yl)oxy)octyl)-9,12,17,20-tetraazaocta-cosanedioate]	0.12	68.1 nm	98.0%	2.8E+07		3.5E+05	9.8E+07	0.045
CCCCCCCCCCCOC(=O)CCCCCN(CCCCCCCC(=O)OC(CCCCCCCC)CCCCCCCC)CCCNC(=O)CN(CC(=O)NCCCN(CCCCCCCC(=O)OC(CCCCCCCC)CCCCCCCC)CCCCCC(=O)OCCCCCCCCCCC)C(=O)CCN1CCCC1 [Compound 2353, 1-octylnonyl8-[3-[[2-[[2-[3-[[8-(1-octylnonoxy)-8-oxo-octyl]-(6-oxo-6-undecoxy-hexyl)amino]propylamino]-2-oxo-ethyl]-(3-pyrrolidin-1-ylpropanoyl)amino]acetyl]amino]propyl-(6-oxo-6-undecoxy-hexyl)amino]octanoate]	0.14	85.2 nm	97.0%	9.7E+03	3.2E+04	1.3E+05	7.8E+04	7.617
CCCCCCCCCCCC(=O)OCCCCCN(CCCCCCCC(=O)OC(CCCCCCCC)CCCCCCCC)CCNC(=O)CCC(=O)NCCN(CCCCCCCC(=O)OC(CCCCCCCC)CCCCCCCC)CCCCCOC(=O)CCCCCCCCCCC [Compound 2354, 5-[2-[[4-[2-[5-dodecanoyloxypentyl-[8-(1-octylnonoxy)-8-oxo-octyl]amino]ethylamino]-4-oxo-butanoyl]amino]ethyl-[8-(1-octylnonoxy)-8-oxo-octyl]amino] pentyl dodecanoate]	0.10	69.2 nm	94.6%	5.6E+06	6.2E+03	7.3E+05	4.5E+07	0.131
CCCCCCCCCC(C)COC(=O)CCCCCN(CCCCCCCC(=O)OC(CCCCCCCC)CCCCCCCC)CCNC(=O)CCC(=O)NCCN(CCCCCCCC(=O)OC(CCCCCCCC)CCCCCCCC)CCCCCC(=O)OCC(C)CCCCCCCCC (stereo not shown) [Compound 2355, 1-octylnonyl 8-[[6-(2-methylundecoxy)-6-oxo-hexyl]-[2-[[4-[2-[[6-(2-methylundecoxy)-6-oxo-hexyl]-[8-(1-octylnonoxy)-8-oxo-octyl]amino]ethylamino]-4-oxo-butanoyl]amino]ethyl]amino]octanoate]	0.07	74.7 nm	94.9%	1.8E+07	5.9E+03	4.6E+05	1.4E+08	0.026
CCCCCCCCCCC(CC)OC(=O)CCCCCN(CCCCCCCC(=O)OC(CCCCCCCC)CCCCCCCC)CCNC(=O)CCC(=O)NCCN(CCCCCCCC(=O)OC(CCCCCCCC)CCCCCCCC)CCCCCC(=O)OC(CC)CCCCCCCCCC (stereo not shown) [Compound 2356, 1-octylnonyl 8-[[6-(1-ethylundecoxy)-6-oxo-hexyl]-[2-[[4-[2-[[6-(1-ethylundecoxy)-6-oxo-hexyl]-[8-(1-octylnonoxy)-8-oxo-octyl]amino]ethylamino]-4-oxo-butanoyl]amino]ethyl]amino]octanoate]	0.10	74.2 nm	95.0%	1.3E+08	9.1E+03	1.3E+06	8.1E+08	0.010
CCCCCCCCCCC(CC)OC(=O)CCCCCN(CCCCCCCC(=O)OC(CCCCCCCC)CCCCCCCC)CCNC(=O)/C=C/C(=O)NCCN(CCCCCCCC(=O)OC(CCCCCCCC)CCCCCCCC)CCCCCC(=O)OC(CC)CCCCCCCCCC (stereo not shown) [Compound 2378, 1-octylnonyl 8-[[6-(1-ethylundecoxy)-6-oxo-hexyl]-[2-[[(E)-4-[2-[[6-(1-ethylundecoxy)-6-oxo-hexyl]-[8-(1-octylnonoxy)-8-oxo-octyl]amino]ethylamino]-4-oxo-but-2-enoyl]amino]ethyl]amino]octanoate]	0.08	107.8 nm	93.0%	1.6E+07	7.6E+03	2.2E+05	1.8E+08	0.007
CCCCCCCCCCCOC(=O)CCCCCN(CCCCCCCC(=O)OCCCC(CCCCC)CCCCC)CCNC(=O)/C=C/C(=O)NCCN(CCCCCCCC(=O)OCCCC(CCCCC)CCCCC)CCCCCC(=O)OCCCCCCCCCCC [Compound 2382, 4-pentylnonyl 8-[2-[[(E)-4-oxo-4-[2-[[8-oxo-8-(4-pentylnonoxy)octyl]-(6-oxo-6-undecoxy-hexyl)amino]ethylamino]but-2-enoyl]amino]ethyl-(6-oxo-6-undecoxy-hexyl)amino]octanoate]	0.13	105.2 nm	87.3%	1.9E+07	2.1E+04	2.1E+06	1.5E+08	0.104
CCCCCCCCCCCOC(=O)CCCCCN(CCCCCCCC(=O)OC(CCCCCC)CCCCCCCC)CCNC(=O)CCC(=O)NCCN(CCCCCCCC(=O)OC(CCCCCC)CCCCCCCC)CCCCCC(=O)OCCCCCCCCCCC (stereo not shown) [Compound 2390, 1-hexylnonyl 8-[2-[[4-[2-[[8-(1-hexylnonoxy)-8-oxo-octyl]-(6-oxo-6-undecoxy-hexyl)amino]ethylamino]-4-oxo-butanoyl]amino]ethyl-(6-oxo-6-undecoxy-hexyl)amino]octanoate]	0.09	71.6 nm	90.6%	1.9E+07	1.2E+04	1.7E+06	1.9E+08	0.094
CCCCCCCCCCCOC(=O)CCCCCN(CCCCCCCC(=O)OCCCC(CCCCC)CCCCC)CCN1CCN(CCN(CCCCCCCC(=O)OCCCC(CCCCC)CCCCC)CCCCCC(=O)OCCCCCCCCCCC)CC1 [Compound 2397, 4-pentylnonyl 8-[2-[4-[2-[[8-oxo-8-(4-pentylnonoxy)octyl]-(6-oxo-6-undecoxy-hexyl)amino]ethyl]piperazin-1-yl]ethyl-(6-oxo-6-undecoxy-hexyl)amino]octanoate]	0.09	114.0 nm	94.0%	1.4E+07	9.4E+03	6.5E+05	6.5E+07	0.052
